Activity calls are given as the source filed them. No cut-off for these calls is given here.
What was measured:
Mus musculus [1] = assay: Protection against LPS-induced sepsis in C57BL/6J mouse model assessed as survival rate at 0.05 mg/kg, iv measured after 48 hrs relative to control; type: functional
[2] = Half-life in Sprague-Dawley rat at 20 mg/kg, po measured after 24 hrs; type: ADME, organism-based; conditions: in vivo
[3] = Tmax in Sprague-Dawley rat at 5 mg/kg, iv measured after 24 hrs; type: ADME, organism-based; conditions: in vivo
Mus musculus [4] = assay: Anti-inflammatory activity in LPS-induced C57BL/6J mouse model of sepsis assessed as IL-6 in liver at 5 mg/kg, ip preadministered with compound for 24 hrs followed by LPS administration and measured after 3 hrs by ELISA (reference value: 308 pg/ml); type: functional; conditions: time 27 hrs
Mus musculus [5] = assay: Protection against LPS-induced sepsis in C57BL/6J mouse model assessed as survival rate at 30 mg/kg, iv measured after 72 hrs relative to control; type: functional
[6] = Cmax in C57BL/6J mouse liver at 5 mg/kg, ip measured after 24 hrs by LC-MS/MS analysis; type: ADME, organism-based
[7] = Oral bioavailability in Sprague-Dawley rat at 20 mg/kg measured after 24 hrs; type: ADME, organism-based; conditions: in vivo
[8] = Cytotoxicity in HEK293T cells assessed as cell viability at 50 uM incubated for 48 hrs by CCK8 assay relative to control; type: toxicity, cell-based, HEK-293T; conditions: human, read-out: Activity
[9] = biological target: T1, Bifunctional epoxide hydrolase 2 (Homo sapiens, UniProt P34913)
T1 sequence (P34913 whole entry): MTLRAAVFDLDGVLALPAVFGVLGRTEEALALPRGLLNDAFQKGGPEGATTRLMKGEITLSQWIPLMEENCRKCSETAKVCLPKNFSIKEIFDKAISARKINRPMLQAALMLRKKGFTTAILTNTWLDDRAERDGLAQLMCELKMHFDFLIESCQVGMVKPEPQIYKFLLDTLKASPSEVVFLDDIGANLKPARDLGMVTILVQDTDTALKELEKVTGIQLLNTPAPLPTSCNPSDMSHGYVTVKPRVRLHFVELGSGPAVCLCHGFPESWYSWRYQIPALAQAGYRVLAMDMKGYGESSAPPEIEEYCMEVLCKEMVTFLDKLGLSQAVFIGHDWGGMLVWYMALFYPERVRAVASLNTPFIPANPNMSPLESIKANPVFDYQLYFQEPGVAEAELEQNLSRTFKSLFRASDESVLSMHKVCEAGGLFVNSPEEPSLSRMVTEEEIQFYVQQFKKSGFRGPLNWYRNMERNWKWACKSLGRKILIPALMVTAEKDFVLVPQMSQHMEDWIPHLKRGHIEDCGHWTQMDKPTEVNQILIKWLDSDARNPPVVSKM

Mus musculus [10] = assay: Protection against LPS-induced sepsis in C57BL/6J mouse model assessed as survival rate at 0.5 mg/kg, iv measured after 24 hrs relative to control; type: functional
Mus musculus [11] = assay: Protection against LPS-induced sepsis in C57BL/6J mouse model assessed as survival rate at 0.05 mg/kg, iv measured after 72 hrs relative to control; type: functional
Mus musculus [12] = assay: Protection against LPS-induced sepsis in C57BL/6J mouse model assessed as survival rate at 0.5 mg/kg, iv measured after 48 hrs relative to control; type: functional
[13] = Cytotoxicity against human HepG2 cells assessed as cell viability at 5 uM incubated for 48 hrs by CCK8 assay relative to control; type: toxicity, cell-based; conditions: read-out: Activity
Mus musculus [14] = assay: Protection against LPS-induced sepsis in C57BL/6J mouse model assessed as survival rate at 30 mg/kg, iv measured after 24 hrs relative to control; type: functional
[15] = Apparent volume of distribution in Sprague-Dawley rat at 20 mg/kg, po measured after 24 hrs; type: ADME, organism-based; conditions: in vivo
Mus musculus [16] = assay: Anti-inflammatory activity in LPS-induced C57BL/6J mouse model of sepsis assessed as IL-6 in serum at 5 mg/kg, ip preadministered with compound for 24 hrs followed by LPS administration and measured after 3 hrs by ELISA (reference value: 17292 pg/ml); type: functional; conditions: time 27 hrs
Mus musculus [17] = assay: Protection against LPS-induced sepsis in C57BL/6J mouse model at 0.05 mg/kg, iv measured after 72 hrs; type: functional, organism-based
[18] = AUC (0 to 24 hrs) in Sprague-Dawley rat at 5 mg/kg, iv measured after 24 hrs; type: ADME, organism-based; conditions: in vivo
Mus musculus [19] = assay: Protection against LPS-induced sepsis in C57BL/6J mouse model assessed as survival rate at 30 mg/kg, iv measured after 48 hrs relative to control; type: functional
[20] = Cmax in Sprague-Dawley rat at 5 mg/kg, iv measured after 24 hrs; type: ADME, organism-based; conditions: in vivo
Mus musculus [21] = assay: Anti-inflammatory activity in LPS-induced C57BL/6J mouse model of sepsis assessed as TNF-alpha in serum at 5 mg/kg, ip preadministered with compound for 24 hrs followed by LPS administration and measured after 3 hrs by ELISA (reference value: 282 pg/ml); type: functional; conditions: time 27 hrs
[22] = Cytotoxicity against human HepG2 cells assessed as cell viability at 50 uM incubated for 48 hrs by CCK8 assay relative to control; type: toxicity, cell-based; conditions: read-out: Activity
Mus musculus [23] = assay: Protection against LPS-induced sepsis in C57BL/6J mouse model assessed as survival rate at 5 mg/kg, iv measured after 24 hrs relative to control; type: functional
Mus musculus [24] = assay: Protection against LPS-induced sepsis in C57BL/6J mouse model assessed as survival rate at 5 mg/kg, iv measured after 72 hrs relative to control; type: functional
Mus musculus [25] = assay: Protection against LPS-induced sepsis in C57BL/6J mouse model assessed as […] at 5 mg/kg, iv measured after 24 hrs relative to control; type: functional
[26] = Half-life in Sprague-Dawley rat at 5 mg/kg, iv measured after 24 hrs; type: ADME, organism-based; conditions: in vivo
[27] = Cmax in Sprague-Dawley rat at 20 mg/kg, po measured after 24 hrs; type: ADME, organism-based; conditions: in vivo
[28] = Tmax in Sprague-Dawley rat at 20 mg/kg, po measured after 24 hrs; type: ADME, organism-based; conditions: in vivo
[29] = AUC (0 to 24 hrs) in C57BL/6J mouse liver at 5 mg/kg, ip measured after 24 hrs by LC-MS/MS analysis; type: ADME, organism-based; conditions: in vivo
[30] = AUC (0 to 24 hrs) in Sprague-Dawley rat at 20 mg/kg, po measured after 24 hrs; type: ADME, organism-based; conditions: in vivo
Mus musculus [31] = assay: Protection against LPS-induced sepsis in C57BL/6J mouse model assessed as survival rate at 0.5 mg/kg, iv measured after 72 hrs relative to control; type: functional
[32] = Apparent volume of distribution in Sprague-Dawley rat at 5 mg/kg, iv measured after 24 hrs; type: ADME, organism-based; conditions: in vivo, read-out: Vz
Mus musculus [33] = assay: Protection against LPS-induced sepsis in C57BL/6J mouse model assessed as […] at 5 mg/kg, iv measured after 32 hrs relative to control; type: functional
in vivo = conditions: C57BL/6J, mouse, other tissue, ip, 5 mg/kg
Description: Ratio of Cmax in C57BL/6J mouse liver to blood at 5 mg/kg, ip measured after 24 hrs by LC-MS/MS analysis

SMILES: O=C(Cc1ccccn1)Nc1cccc(/C=C/c2ccc(NC(=O)NCC3CCOCC3)cc2)c1
- survival at 0.05 mg/kg (Mus musculus [1]): 10%
- half-life [2]: 131 min
- Tmax [3]: 4.8 min
- Activity (Mus musculus [4]): 270 pg/mL
- survival at 30 mg/kg (Mus musculus [5]): 10%
- Cmax [6]: 2510 ng/g
- bioavailability [7]: 5.1%
- viability at 48 h, 50 µM [8]: 46.6%
- IC50 [9]: 1.52 nM
- survival at 0.5 mg/kg (Mus musculus [10]): 50%
- survival at 0.05 mg/kg (Mus musculus [11]): 10%
- survival at 0.5 mg/kg (Mus musculus [12]): 40%
- viability at 48 h, 5 µM [13]: 73.9%
- survival at 30 mg/kg (Mus musculus [14]): 60%
- Vz [15]: 4132.531 L/kg
- Activity (Mus musculus [16]): 15627 pg/mL
- Activity (Mus musculus [17]): inactive
- AUC(0-t) at 24 h [18]: 266 ng·h/mL
- survival at 30 mg/kg (Mus musculus [19]): 50%
- Cmax [20]: 660 ng/mL
- Activity (Mus musculus [21]): 242 pg/mL
- viability at 48 h, 50 µM [22]: 46.5%
- survival at 5 mg/kg (Mus musculus [23]): 60%
- survival at 5 mg/kg (Mus musculus [24]): 40%
- Activity (Mus musculus [25]): 40%
- half-life [26]: 24 min
- Cmax [27]: 28.2 ng/mL
- Tmax [28]: 30 min
- AUC [29]: 21370 ng·h/g
- AUC [30]: 48 ng·h/mL
- survival at 0.5 mg/kg (Mus musculus [31]): 40%
- Vd [32]: 10.8 L/kg
- Activity (Mus musculus [33]): 40%
- Kp at 24 h (in vivo): 7.6

Reference: ChEMBL document CHEMBL5543072, “Discovery of a novel lead characterized by a stilbene-extended scaffold against sepsis as soluble epoxide hydrolase inhibitors” (Eur J Med Chem, 2024)
